Assay results: US6887882B2, “Pharmaceutical compositions comprising chelidonine or derivatives thereof” (priority 2002, dated 2005)
Where two headings read alike, the source gives them in different places.

What was measured:
hKv1.5 channel = target: T1, hKv1.5 channel (Homo sapiens, UniProt P22460); assay: Block of hKv1.5 channel currents expressed in Ltk-cells (whole cell patch clamp); type: cell-based; conditions: for Hill value: from concentration-response curves using the Hill equation; for IC50 / type of hKv1.5 block / effect on the hKv1.5 channel currents: hKv1.5 expressed in Ltk-cells; for IC50: steady-state current at end of +50 mV depolarizing pulse, holding -80 mV; for type of hKv1.5 block: FIGS. 1a to 1e; for effect on the hKv1.5 channel currents: FIGS. 1a to 1d
T1 construct: expressed in transfected cells; host or cells: mouse Ltk- cells (pMSVneo vector, G418 selection)
Experimental: Cell line selectively expressing a specific cardiac K^+ channel gene was prepared according to the method described in the thesis (Yang, et al., Inhibition of cardiac potassium currents by the vesnarinone analog OPC-18790: comparison with quinidine and dofetilide. J Pharmacol Exp Ther. 1997, 280: 1170-1175; Kwak, et al., Phosphorylation is required for alteration of Kv1.5 K^+ channel function by the Kvbeta 1.3 subunit. J Biol Chem 1999, 274: 25355-25361).
First, cDNAs for human cardiac K^+ channel genes such as hKv 1.5 and HERG were subcloned into pMSVneo which contain dexamethasone-inducible murine mammary tumor virus promoter controlling transcription of the inserted cDNA and a gene conferring neomycin resistance driven by the SV40 early promotor. The cDNA-containing expression vector was transfected into mouse Ltk-cells with lipofectamine. After 24 hours, the cells selection with […] of G418 was performed for 2 weeks or until discrete foci formed. Individual foci were isolated, maintained in 0.25 μg/ml of G418, and screened by Norhtern analysis and electrophysiological analysis. Transfected cells were cultured in Dulbeco's modified Eagle medium (DMEM) supplemented with 10% horse serum and 0.25 μg/ml of G418, under 5% CO2. Transiently transfected cells were cultured in DMEM media supplemented with only 10% horse serum, differently from stable cell lines.
Currents in human atrial myocytes and cell lines were recorded by using the whole cell configuration of the gigaohm-seal patch clamp techniques (Kwak, et al., Phosphorylation is required for alteration of Kv1.5 K^+ channel function by the Kvbeta 1.3 subunit. J Biol Chem 1999, 274: 25355-25361). First, electrical signals were amplified with a patch clamp amplifier (Axon Instruments, Axopatch-1D, Foster, USA). Currents were digitized by a signal converter (Digidata 1200, Axon Instruments) and stored on the hard disk of a computer. The micropipette with a resistance of 1˜2MΩ (Kimax-51, 1.5=14 1.8×10 mm) for current recording, was pulled out by a 2-stage pipette puller (Narishige, PP-83). The intracellular pipette-filling solution for whole cell mode contained 100 mM KCl, 10 mM HEPES, 5 mM K4BAPTA, 5 mM K2ATP and 1 mM MgCl2 (pH 7.2). The extracellular solution contained 130 mM NaCl, 4 mM KCl, 1.8 mM CaCl2, 1 mM MgCl2, 10 mM HEPES and 10 mM glucose (pH 7.35).
The current traces were recorded with a depolarizing pulse of +50 mV from a holding potential of −80 mV, followed by a repolarizing pulse of −50 mV in the Ltk-cells. To observe the concentration-dependent block of hKv1.5 channel currents by each compound, steady-state currents taken at the end of the depolarizing pulse of +50 mV were normalized to the control obtained in the absence of each compound
FIG. 1e is concentration-response curves showing the relative steady-state currents obtained at the end of the depolarizing pulse against the concentration of each compound. Data were fitted with a Hill equation.
IC50 values (50% inhibitory concentration, μM) of compounds 1˜14 on the hKv1.5 channel currents were determined, and Hill values were calculated from the concentration-response curves of the respective compounds using the Hill equation.

rabbit atrial tissue = assay: Frequency-dependent effects on action potentials of rabbit atrial tissue (APD90); type: cell-based; conditions: varied stimulus frequencies, FIG. 5c; compared to chelidonine
Experimental: Action potentials in rabbit atrial tissue were recorded according to the method described in thesis by Kwak, et al. (A newly synthesized benzopyran derivatives, activates the cardiac ATP-sensitive K^+ channel. J Pharmacol Exp Ther 1995, 275: 807-812).
Male New Zealand white rabbits weighing about 2 kg were stunned with a blow on the head and hearts were rapidly excised and transferred to a dissection bath filled with Tyrode's solution saturated with 97% O2 and 3% CO2 gas mixture and each dissected tissue was mounted horizontally in a narrow channel of a tissue chamber and continuously superfused with the Tyrode's solution at 37° C. The action potentials were elicited by stimulating the cardiac cells with square pulses (1˜5 Hz, 1-ms duration, 20-30% above threshold voltage) by a stimulator. […] Tracings on the oscilloscope screen were photographed on a 35-mm film and also recorded on a physiograph (RS 3400, Gould, Cleveland, Ohio). APD90 was used for the comparison of action potential durations. APD90 represents the action potential duration at 90% repolarization, relative to the action potential duration at maximum 100% depolarization. Images on the oscilloscope screen were captured on Polaroid camera.
We tested whether the effect of chelidonine on action potentials of rabbit atrial myocytes are frequency-dependent or not.
The relative action potential durations were normalized to the APD90 value in the absence of chelidonine at each frequency. At the stimulus frequency of 1, 2, 3, 4 and 5 Hz, 1 μM chelidonine increased APD90 by 13.0±8.1% (n=5), 14.5±7.9% (n=5), 16.5±2.2% (n=5) 28.2±0.4% (n=5) or 33.0±0.3 1% (n=5) of the control APD90 in the absence of chelidonine at each frequency, respectively.

mouse = conditions: in vivo, cited from earlier work

T1 sequence (P22460 whole entry): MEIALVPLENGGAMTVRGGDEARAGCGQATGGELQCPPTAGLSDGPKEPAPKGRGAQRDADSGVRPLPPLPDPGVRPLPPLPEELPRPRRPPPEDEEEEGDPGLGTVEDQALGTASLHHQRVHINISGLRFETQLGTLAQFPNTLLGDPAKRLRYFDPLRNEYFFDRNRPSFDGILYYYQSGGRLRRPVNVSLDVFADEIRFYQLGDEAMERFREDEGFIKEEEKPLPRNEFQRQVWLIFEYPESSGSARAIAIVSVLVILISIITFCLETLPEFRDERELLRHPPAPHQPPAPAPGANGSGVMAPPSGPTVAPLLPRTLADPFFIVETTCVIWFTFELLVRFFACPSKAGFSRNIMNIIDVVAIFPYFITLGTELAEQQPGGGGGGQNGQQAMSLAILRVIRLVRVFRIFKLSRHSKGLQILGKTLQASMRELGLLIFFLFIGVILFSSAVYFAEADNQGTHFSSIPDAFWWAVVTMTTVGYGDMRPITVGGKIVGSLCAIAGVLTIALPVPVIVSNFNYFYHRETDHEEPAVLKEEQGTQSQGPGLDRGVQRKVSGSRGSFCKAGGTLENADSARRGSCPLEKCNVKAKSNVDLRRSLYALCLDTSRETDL

Row | Hill value (hKv1.5 channel) | IC50 (hKv1.5 channel) [µM] | Compound | type of hKv1.5 block (hKv1.5 channel) | effect on the hKv1.5 channel currents (hKv1.5 channel) | action potential duration prolongation (rabbit atrial tissue) | toxicity (mouse; iv) [mg/kg] | toxicity (mouse; sc) [mg/kg]
1 | 1.34 |  | CN1Cc2c(ccc3c2OCO3)[C@@]2(C)[C@@H](O)Cc3cc4c(cc3[C@@H]12)OCO4 [Compound 13, [5bR-(5bα,6β,12bα)]-5b,6,7,12b,13, 14-hexahydro-5b,13-dimethyl[1,3]-benzodioxolo[5,6c]-1,3-dioxolo[4,5-i] phenanthridin-6-ol] |  |  |  |  | 
2 | 0.98 | 19.9 ± 3.5 | CN1Cc2c(ccc3c2OCO3)C2=CCc3cc4c(cc3[C@H]21)OCO4 [Compound 7, (12bR)-7,12b,13,14-tetrahydro-13-methyl[1,3]-benzodioxolo[5,6c]-1,3-dioxolo[4,5-i]phenanthridine] |  |  |  |  | 
3 | 1.37 | 59.3 ± 3 | CN1Cc2c(ccc3c2OCO3)[C@H]2[C@@H](OCc3ccccc3)Cc3cc4c(cc3[C@H]21)OCO4 [Compound 3, [5bR-(5bα,6β,12bα)]-5b,6,7,12b,13, 14-hexahydro-6-benzyloxy-13-methyl[1,3]benzodioxolo[5,6c]-1,3-dioxolo[4,5-i]phenanthridine] |  |  |  |  | 
4 | 1.20 | 31.3 ± 3.5 | CN1Cc2c(ccc3c2OCO3)[C@H]2[C@@H](OS(C)(=O)=O)Cc3cc4c(cc3[C@H]21)OCO4 [Compound 10, {[5bR-(5bα,6β,12bα)]-5b,6,7,12b,13, 14-hexahydro-13-methyl[1,3]benzodioxolo[5,6c]-1,3-dioxolo[4,5-i]phenanthridin-6-yl}-methanesulfonate] |  |  |  |  | 
5 | 1.19 | 29.6 ± 3.7 | Cc1ccc(S(=O)(=O)O[C@H]2Cc3cc4c(cc3[C@@H]3[C@H]2c2ccc5c(c2CN3C)OCO5)OCO4)cc1 [Compound 11, {[5bR-(5bα,6β,12bα)]-5b,6,7,12b,13, 14-hexahydro-13-methyl[1,3]benzodioxolo[5,6c]-1,3-dioxolo[4,5-i]phenanthridin-6-yl}-4-methylbenzenesulfonate] |  |  |  |  | 
6 | 1.12 | 1.9 ± 1 | CN1Cc2c(ccc3c2OCO3)[C@H]2[C@@H](OC(N)=O)Cc3cc4c(cc3[C@H]21)OCO4 [Compound 12, {[5bR-(5bα,6β,12bα)]-5b,6,7,12b,13, 14-hexahydro-13-methyl[1,3]benzodioxolo[5,6c]-1,3-dioxolo[4,5-i]phenanthridin-6-yl}-carbamate] |  |  |  |  | 
7 | 1.18 | 29.3 ± 4.2 | CN1Cc2c(ccc3c2OCO3)[C@H]2[C@@H](OC(=O)c3ccccc3)Cc3cc4c(cc3[C@H]21)OCO4 [Compound 5, {[5bR-(5bα,6β,12bα)]-5b,6,7,12b,13, 14-hexahydro-13-methyl[1,3]benzodioxolo[5,6c]-1,3-dioxolo[4,5-i]phenanthridin-6-yl}-benzoate] | showed the tonic blocking effects | concentration-dependent inhibitory effects | increased the action potential durations in the similar manner as chelidonine, but to a lesser extent |  | 

Row | Compound | Hill value (hKv1.5 channel) | IC50 (hKv1.5 channel) [µM] | type of hKv1.5 block (hKv1.5 channel) | effect on the hKv1.5 channel currents (hKv1.5 channel) | action potential duration prolongation (rabbit atrial tissue) | toxicity (mouse; iv) [mg/kg] | toxicity (mouse; sc) [mg/kg]
8 | CN1Cc2c(ccc3c2OCO3)-c2ccc3cc4c(cc3c21)OCO4 [Compound 6, (12bR)-13,14-dihydro-13-methyl [1,3]benzodioxolo[5,6c]-1,3-dioxolo[4,5-i]phenanthridine] | 1.09 | 26.4 ± 3.9 |  |  |  |  | 
9 | CN1Cc2c(ccc3c2OCO3)[C@H]2CCc3cc4c(cc3[C@H]21)OCO4 [Compound 8, [5bR-(5bα,6β,12bα)]-5b,6,7,12b,13, 14-hexahydro-13-methyl[1,3] benzodioxolo[5,6c]-1,3-dioxolo[4,5-i]phenanthridine] | 1.38 | 65.6 ± 4.2 |  |  |  |  | 
10 | CO[C@H]1Cc2cc3c(cc2[C@@H]2[C@H]1c1ccc4c(c1CN2C)OCO4)OCO3 [Compound 2, [5bR-(5bα,6β,12bα)]-5b,6,7,12b,13, 14-hexahydro-6-methoxy-13-methyl[1,3]-benzodioxolo[5,6c]-1,3-dioxolo[4,5-i]phenanthridine] | 1.29 | 45.2 ± 4.1 |  |  |  |  | 
11 | C[n+]1cc2c3c(ccc2c2ccc4cc5c(cc4c21)OCO5)OCO3 [Compound 14, 13-methyl[1,3]benzodioxolo[5,6c]-1,3-dioxolo[4,5-i]phenanthridinium] | 1.39 | 13 ± 3.8 | slowed the channel activation | concentration-dependent inhibitory effects | increased the action potential durations in the similar manner as chelidonine, but to a lesser extent | 15.9 | 102.0
12 | CC(=O)O[C@H]1Cc2cc3c(cc2[C@@H]2[C@H]1c1ccc4c(c1CN2C)OCO4)OCO3 [Compound 4, {[5bR-(5bα,6β,12bα)]-5b,6,7,12b,13, 14-hexahydro-13-methyl[1,3]benzodioxolo[5,6c]-1,3-dioxolo[4,5-i]phenanthridin-6-yl}-acetate] | 1.34 | 11.3 ± 3.3 | predominantly blocked the open ion channels | concentration-dependent inhibitory effects | increased the action potential durations in the similar manner as chelidonine, but to a lesser extent |  | 
13 | CN1Cc2c(ccc3c2OCO3)[C@H]2[C@@H](OP(=O)(Oc3ccccc3)Oc3ccccc3)Cc3cc4c(cc3[C@H]21)OCO4 [Compound 9, {[5bR-(5bα,6β,12bα)]-5b,6,7,12b,13, 14-hexahydro-13-methyl[1,3]benzodioxolo[5,6c]-1,3-dioxolo[4,5-i]phenanthridin-6-yl}-diphenylphosphate] | 1.26 |  |  |  |  |  | 
